From patent US20240425453A1, “ISOINDOLINES AS PMS2 INHIBITORS” (NeoPhore Limited, priority 2021, published 2024)
Structures can show the parent of a compound that is named as a salt.

The compounds below were run against recombinant N-terminal PMS2 (residues 1-365) (Homo sapiens (Human), UniProt P54278) (assay: Fluorescence polarisation assay for PMS2). Details: 10 nM N-terminal PMS2, 5 nM fluorescent probe compound; 30 min pre-incubation, read after 1 hour at room temperature.
Assay type: binding

recombinant N-terminal PMS2 (residues 1-365), sequence (P54278 1-365): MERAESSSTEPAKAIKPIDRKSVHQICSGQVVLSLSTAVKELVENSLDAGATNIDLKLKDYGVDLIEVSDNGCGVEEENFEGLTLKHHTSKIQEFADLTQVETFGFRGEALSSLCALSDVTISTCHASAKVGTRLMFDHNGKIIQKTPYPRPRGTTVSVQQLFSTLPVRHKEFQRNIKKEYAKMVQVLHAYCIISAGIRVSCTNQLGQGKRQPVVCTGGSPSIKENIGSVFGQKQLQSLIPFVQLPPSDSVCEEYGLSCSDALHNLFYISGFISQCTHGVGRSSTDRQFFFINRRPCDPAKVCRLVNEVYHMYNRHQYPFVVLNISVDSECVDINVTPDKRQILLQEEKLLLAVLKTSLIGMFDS

IC50 [nM] | Structure (SMILES)
100 to 1000 | COc1c(C)c(O)cc(O)c1C(=O)N1Cc2cccc(OC/C=C/C(=O)N(C)C)c2C1 [Example 35, (E)-4-((2-(4,6-Dihydroxy-2-methoxy-3-methylbenzoyl)isoindolin-4-yl)oxy)-N,N-dimethylbut-2-enamide]
100 to 1000 | C=CC(=O)N(C)c1cccc2c1CN(C(=O)c1c(O)cc(O)c(C)c1OC)C2 [Example 32, N-[2-(4,6-dihydroxy-2-methoxy-3-methyl-benzoyl)isoindolin-4-yl]-N-methyl-prop-2-enamide]
100 to 1000 | Cc1c(O)cc(O)c(C(=O)N2CCc3cccc(NC(=O)/C=C/CN(C)C)c3C2)c1OCC1CCCCC1 [Example 20, (E)-N-[2-[2-(Cyclohexylmethoxy)-4,6-dihydroxy-3-methyl-benzoyl]-3,4-dihydro-1H-isoquinolin-8-yl]-4-(dimethylamino)but-2-enamide]
> 1000 | C=C(F)C(=O)Nc1cccc2c1CN(C(=O)c1c(O)cc(O)c(C)c1OCc1ccccc1)C2 [Example 5, N-(2-(2-(Benzyloxy)-4,6-dihydroxy-3-methylbenzoyl)isoindolin-4-yl)-2-fluoroacrylamide]
< 100 | Cc1c(O)cc(O)c(C(=O)N2Cc3cccc(NC(=O)/C=C/CN(C)C)c3C2)c1OCC1CCCC1 [Example 14, (E)-N-[2-[2-(Cyclopentylmethoxy)-4,6-dihydroxy-3-methyl-benzoyl]isoindolin-4-yl]-4-(dimethylamino)but-2-enamide]
< 100 | C=CC(=O)Nc1cccc2c1CN(C(=O)c1c(O)cc(O)c(C)c1OCC1CCCCC1)C2 [Example 7, N-(2-(2-(Cyclohexylmethoxy)-4,6-dihydroxy-3-methylbenzoyl)isoindolin-4-yl) acrylamide]
< 100 | Cc1c(O)cc(O)c(C(=O)N2Cc3cccc(NC(=O)/C=C/CN(C)C)c3C2)c1OCc1ccccc1 [Example 6, (E)-N-(2-(2-(Benzyloxy)-4,6-dihydroxy-3-methylbenzoyl)isoindolin-4-yl)-4-(dimethylamino)but-2-enamide]
< 100 | Cc1c(O)cc(O)c(C(=O)N2Cc3cccc(NC(=O)/C=C/CN4CCCC4)c3C2)c1OCC1CCCCC1 [Example 9, (E)-N-(2-(2-(Cyclohexylmethoxy)-4,6-dihydroxy-3-methylbenzoyl)isoindolin-4-yl)-4-(pyrrolidin-1-yl)but-2-enamide]
100 to 1000 | Cc1c(O)cc(O)c(C(=O)N2Cc3ccc(NC(=O)/C=C/CN(C)C)cc3C2)c1OCC1CCCCC1 [Example 19, (E)-N-[2-[2-(Cyclohexylmethoxy)-4,6-dihydroxy-3-methyl-benzoyl]isoindolin-5-yl]-4-(dimethylamino)but-2-enamide]
< 100 | Cc1c(O)cc(O)c(C(=O)N2Cc3cccc(NC(=O)/C=C/CN(C)C)c3C2)c1OCC1CC1 [Example 24, (E)-N-[2-[2-(cyclopropylmethoxy)-4,6-dihydroxy-3-methyl-benzoyl]isoindolin-4-yl]-4-(dimethylamino)but-2-enamide]
100 to 1000 | COc1c(C)c(O)cc(O)c1C(=O)N1CCc2ccc(N(C)C(=O)/C=C/CN(C)C)cc2C1 [Example 29, (E)-N-[2-(4,6-dihydroxy-2-methoxy-3-methyl-benzoyl)-3,4-dihydro-1H-isoquinolin-7-yl]-4-(dimethylamino)-N-methyl-but-2-enamide]
< 100 | COc1c(C)c(O)cc(O)c1C(=O)N1Cc2cccc(N(C)C(=O)/C=C/CN(C)C)c2C1 [Example 25, (E)-N-[2-(4,6-Dihydroxy-2-methoxy-3-methyl-benzoyl)isoindolin-4-yl]-4-(dimethylamino)-N-methyl-but-2-enamide]
< 100 | Cc1c(O)cc(O)c(C(=O)N2CCc3ccc(NC(=O)/C=C/CN(C)C)cc3C2)c1OCC1CCCCC1 [Example 21, (E)-N-[2-[2-(Cyclohexylmethoxy)-4,6-dihydroxy-3-methyl-benzoyl]-3,4-dihydro-1H-isoquinolin-7-yl]-4-(dimethylamino)but-2-enamide]
100 to 1000 | COc1c(C)c(O)cc(O)c1C(=O)N1Cc2ccc(OC/C=C/C(=O)N(C)C)cc2C1 [Example 34, (E)-4-[2-(4,6-Dihydroxy-2-methoxy-3-methyl-benzoyl)isoindolin-5-yl]oxy-N,N-dimethyl-but-2-enamide]
100 to 1000 | COc1c(C)c(O)cc(O)c1C(=O)N1CCc2ccc(NC(=O)/C=C/CN(C)C)cc2C1 [Example 28, (E)-N-[2-(4,6-dihydroxy-2-methoxy-3-methyl-benzoyl)-3,4-dihydro-1H-isoquinolin-7-yl]-4-(dimethylamino)but-2-enamide]
100 to 1000 | COc1c(C)c(O)cc(O)c1C(=O)N1Cc2ccc(NC(=O)/C=C/CN(C)C)cc2C1 [Example 26, (E)-N-[2-(4,6-Dihydroxy-2-methoxy-3-methyl-benzoyl)isoindolin-5-yl]-4-(dimethylamino)but-2-enamide]

IC50 [nM] | Structure (SMILES)
< 100 | CCOc1c(C)c(O)cc(O)c1C(=O)N1Cc2cccc(NC(=O)/C=C/CN(C)C)c2C1 [Example 22, (E)-4-(Dimethylamino)-N-[2-(2-ethoxy-4,6-dihydroxy-3-methyl-benzoyl)isoindolin-4-yl]but-2-enamide]
100 to 1000 | C=CC(=O)Nc1cccc2c1CN(C(=O)c1c(O)cc(O)c(C)c1OCC1CCCCC1)CC2 [Example 17, N-[2-[2-(Cyclohexylmethoxy)-4,6-dihydroxy-3-methyl-benzoyl]-3,4-dihydro-1H-isoquinolin-8-yl]prop-2-enamide]
100 to 1000 | COc1c(C)c(O)cc(O)c1C(=O)N1Cc2ccc(N(C)C(=O)/C=C/CN(C)C)cc2C1 [Example 27, (E)-N-[2-(4,6-dihydroxy-2-methoxy-3-methyl-benzoyl)isoindolin-5-yl]-4-(dimethylamino)-N-methyl-but-2-enamide]
100 to 1000 | CC#CC(=O)Nc1cccc2c1CN(C(=O)c1c(O)cc(O)c(C)c1OCC1CCCCC1)C2 [Example 12, N-(2-(2-(Cyclohexylmethoxy)-4,6-dihydroxy-3-methylbenzoyl)isoindolin-4-yl)but-2-ynamide]
< 100 | C=CC(=O)Nc1ccc2c(c1)CN(C(=O)c1c(O)cc(O)c(C)c1OCC1CCCCC1)CC2 [Example 18, N-[2-[2-(Cyclohexylmethoxy)-4,6-dihydroxy-3-methyl-benzoyl]-3,4-dihydro-1H-isoquinolin-7-yl]prop-2-enamide]
< 100 | C=CC(=O)Nc1cccc2c1CN(C(=O)c1c(O)cc(O)c(C)c1OCc1ccccc1)C2 [Example 4, N-(2-(2-(Benzyloxy)-4,6-dihydroxy-3-methylbenzoyl)isoindolin-4-yl)acrylamide]
100 to 1000 | Cc1c(O)cc(O)c(C(=O)N2Cc3cccc(N(C)C(=O)/C=C/CN(C)C)c3C2)c1OCC1CC1 [Example 31, (E)-N-[2-[2-(Cyclopropylmethoxy)-4,6-dihydroxy-3-methyl-benzoyl]isoindolin-4-yl]-4-(dimethylamino)-N-methyl-but-2-enamide]
< 100 | CN(C)C/C=C/C(=O)Nc1cccc2c1CN(C(=O)c1c(O)cc(O)cc1OCc1ccccc1)C2 [Example 2, (E)-N-(2-(2-(Benzyloxy)-4,6-dihydroxybenzoyl)isoindolin-4-yl)-4-(dimethylamino)but-2-enamide]
100 to 1000 | C=C(CN1CCOCC1)C(=O)Nc1cccc2c1CN(C(=O)c1c(O)cc(O)c(C)c1OC)C2 [Example 37, N-(2-(4,6-Dihydroxy-2-methoxy-3-methylbenzoyl)isoindolin-4-yl)-2-(morpholinomethyl)acrylamide]
100 to 1000 | C=CC(=O)Nc1cccc2c1CN(C(=O)c1c(O)cc(O)cc1OCc1ccccc1)C2 [Example 1, N-(2-(2-(Benzyloxy)-4,6-dihydroxybenzoyl)isoindolin-4-yl)acrylamide]
< 100 | C=CC(=O)Nc1ccc2c(c1)CN(C(=O)c1c(O)cc(O)c(C)c1OCC1CCCCC1)C2 [Example 16, N-[2-[2-(Cyclohexylmethoxy)-4,6-dihydroxy-3-methyl-benzoyl]isoindolin-5-yl]prop-2-enamide]
> 1000 | C/C=C/C(=O)Nc1cccc2c1CN(C(=O)c1c(O)cc(O)c(C)c1OCC1CCCCC1)C2 [Example 13, (E)-N-(2-(2-(Cyclohexylmethoxy)-4,6-dihydroxy-3-methylbenzoyl)isoindolin-4-yl)but-2-enamide]
< 100 | CCOc1c(C)c(O)cc(O)c1C(=O)N1Cc2cccc(N(C)C(=O)/C=C/CN(C)C)c2C1 [Example 33, (E)-4-(Dimethylamino)-N-(2-(2-ethoxy-4,6-dihydroxy-3-methylbenzoyl)isoindolin-4-yl)-N-methylbut-2-enamide]
< 100 | Cc1c(O)cc(O)c(C(=O)N2Cc3cccc(NC(=O)/C=C/CN(C)C)c3C2)c1OCC(F)(F)F [Example 23, (E)-N-[2-[4,6-Dihydroxy-3-methyl-2-(2,2,2-trifluoroethoxy)benzoyl]isoindolin-4-yl]-4-(dimethylamino)but-2-enamide]
> 1000 | C=C(F)C(=O)Nc1cccc2c1CN(C(=O)c1c(O)cc(O)cc1OCc1ccccc1)C2 [Example 3, N-(2-(2-(Benzyloxy)-4,6-dihydroxy-benzoyl)isoindolin-4-yl)-2-fluoroacrylamide]
< 100 | Cc1c(O)cc(O)c(C(=O)N2Cc3cccc(NC(=O)/C=C/CN4CCOCC4)c3C2)c1OCC1CCCCC1 [Example 10, (E)-N-(2-(2-(cyclohexylmethoxy)-4,6-dihydroxy-3-methylbenzoyl)isoindolin-4-yl)-4-morpholinobut-2-enamide hydrochloride]

Structure (SMILES) | IC50 [nM]
Cc1c(O)cc(O)c(C(=O)N2Cc3cccc(NC(=O)/C=C/CN(C)C)c3C2)c1OCC1CCCCC1 [Example 8, (E)-N-(2-(2-(cyclohexylmethoxy)-4,6-dihydroxy-3-methylbenzoyl)isoindolin-4-yl)-4-(dimethylamino)but-2-enamide] | < 100
